The values that follow come from patent publication US20050227995A1, “Phenyl sulfoxides and phenyl sulfones” (priority 2002, published 2005).

In this test the test system is Aβ release from human cell lines (H4, HEK293) stably overexpressing human APP695 with Swedish double mutation. Kind of test: Determination of the inhibition of A-beta release in cell culture (IGEN analyzer detection). The test is classed as cell-based. Conditions: H4/HEK293 cells overexpressing human APP695 Swedish mutant; supernatant analyzed after 16 h; 0.5% DMSO. The text has this: Determination of the Inhibition of A-Beta Release in Cell Culture
In order to be able to measure the inhibition of Aβ release, human cell lines (H4, HEK293) which stably overexpress the 695 amino acid-long, neuronal splice variant of human APP were generated. In order to increase the generated Aβ amount further, in addition a “Swedish” familiar Alzheimer's double mutation in which the lysine and methionine residues respectively at positions 595 and 596 of the molecule APP695 are replaced by the amino acids asparagine and leucine was introduced. The cells were cultivated in Dulbecco's modified Eagles medium (DMEM, with 4500 mg/l glucose; 110 mg/l sodium pyruvate); 5% by volume fetal calf serum (FCS); 1% nonessential amino acids) to which the geniticin G418 selection marker had been added [all cell culture methods were carried out by standard methods; Sambrook, J., Fritsch, E. F., and Maniatis, T. (1989), Molecular cloning: A laboratory manual. Cold Spring Harbour Laboratory Press]. In order to test the effect of substances on the inhibition of APP processing, about 20 000 cells were diluted in a 96 multititer plate. The next day, the culture medium was removed and replaced by biotin- and serum-free medium, in which the substances were diluted to reach a concentration of 10 μM with a dimethyl sulfoxide (DMSO) content of 0.5%. 0.5% DMSO served as control. For substances showing inhibition of the Aβ generation, additionally dose-effect relations were investigated by using different concentrations. After 16 h, the supernatant was removed and analyzed.
b) Detection of Aβ with the IGEN Analyzer
The total amount of Aβ was detected using the following components: 50 μl of cell culture supernatant were mixed with 25 μl of biotinylated antibody 4G8 (recognizes amino acid 17-25 of Aβ), 25 μl of ruthenium complex-labeled antibody 6E10 (recognizes the N terminus of Aβ) and 50 μl of magnetic streptavidin-coupled beads. Aβ40 was detected by using the following components: 50 μl of cell culture supernatant were mixed with 25 μl of biotinylated antibody G2-10 (recognizes the C terminus of Aβ40), 25 μl of ruthenium complex-labeled antibody W02 (recognizes the N terminus of Aβ), and 50 μl of magnetic streptavidin-coupled beads. In parallel, serial dilutions were made with synthetic A040. The samples were shaken at room temperature and then measured using an IGEN analyzer. Typically, each sample was measured three times in at least two independent experiments. The antibodies and solutions used were prepared according to the instructions of the manufacturer of the analyzer, IGEN, Inc. (Gaitersburg, Md., USA). The measurement was likewise carried out as stated by the manufacturer.
Usually IC50 stands for the concentration at which inhibition is half-maximal. Higher therefore signals a need for much substance. With `C[C@H](COC(=O)N1CCC(O)CC1)[C@@H](c1cc(F)ccc1F)S(=O)(=O)c1ccc(Cl)cc1` (single isomer, unassigned) [Example 43], the IC50 was in the range of 0.01 to 0.1 µM.

The molecule `C[C@H](COC(=O)N1CCN(C)CC1)[C@@H](c1cc(F)ccc1F)S(=O)(=O)c1ccc(Cl)cc1` (single isomer, unassigned) [Example 95] displayed a half-inhibitory concentration (IC50) of 0.01 to 0.1 µM.

Molecule `CC(COC(=O)N1CCNC(=O)C1)C(c1cc(F)ccc1F)S(=O)(=O)c1ccc(Br)cc1` (single isomer, unassigned) [Example 100] showed a half-inhibitory concentration (IC50) of 0.01 to 0.1 µM.

In turn, `C[C@H](COC(=O)N1CCC(CCO)CC1)[C@@H](c1cc(F)ccc1F)S(=O)(=O)c1ccc(Cl)cc1` (single isomer, unassigned) [Example 42] displayed an IC50 of 0.01 to 0.1 µM.
